In patent US20240391965A1, “STAPLED ANTIMICROBIAL PEPTIDES (STAMPS) AND USES THEREOF” (Lytica Therapeutics, Inc., priority 2021, published 2024):
≈ marks a conversion by molar mass, not a printed value. Starred links: 1 amine or outer side, 2 acyl side, 3 side chain; linkers in the order of their positions; H or OH if unused. Positions of bridges follow the written chain, without caps; N, C: chain ends. Residues, ends and D or L forms follow the SMILES beside them. 2,2'Bipyridine(5,5'-diCH2) = c1cc(-c2ccc(C[*:2])cn2)ncc1C[*:1]; mXylylene = c1cc(C[*:1])cc(C[*:2])c1; pXylylene = c1cc(C[*:2])ccc1C[*:1]

Key:
[1] = 48 hours cytotoxicity assay (CellTiter-Glo), liver toxicity; format: cell-based, human
Outline: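 Viability from CellTiter-Glo luminescence after StAMP dilution series or vehicle acted on HepG2 cells for 48 h at 37 °C. Cells were grown in EMEM plus 10% FBS and given 4 h to attach before dosing.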

[2] = system: Pseudomonas aeruginosa (P. aeruginosa); format: cell-based; conditions: microbroth dilution, 20-24 hours at 37° C.
Experimental: (§1) Antimicrobial Activity Assay: The following microbroth dilution protocol was adapted from CLSI to determine the minimum inhibitory concentration (MIC) of StAMPs. Briefly, Mueller-Hinton broth (MHB) or cation-adjusted Mueller-Hinton broth (MHB II) was prepared and autoclaved. Then, a colony of bacterial cells was picked and grown overnight in broth at 37° C. and then diluted and allowed to grow again for 3-4 hours. Serial dilutions of peptide stocks in water (10 μl) were prepared using clear round-bottom polypropylene 96-well plates. Then 90 μl of bacteria in broth was added to give a final inoculum of 5×10^5 CFU/ml. The plates were then covered with porous tape to reduce evaporation and incubated for 20-24 hours at 37° C. The MIC was the minimum peptide concentration at which no visible bacterial growth was observed.

[3] = system: Staphylococcus aureus (S. aureus); format: cell-based; conditions: microbroth dilution, 20-24 hours at 37° C.
Experimental: as §1

[4] = system: Acinetobacter baumannii (A. baumannii); format: cell-based; conditions: microbroth dilution, 20-24 hours at 37° C.
Experimental: as §1

[5] = system: Klebsiella pneumoniae (K. pneumoniae); format: cell-based; conditions: microbroth dilution, 20-24 hours at 37° C.
Experimental: as §1

[6] = system: Escherichia coli (E. coli); format: cell-based; conditions: microbroth dilution, 20-24 hours at 37° C.
Experimental: as §1

[7] = 90 minute cytotoxicity assay (LDH release), renal toxicity; format: cell-based
Outline: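 Released lactate dehydrogenase, read as absorbance at 490 nm after 10 min with assay reagent, serves as read-out. Renal proximal tubule epithelial cells received peptide serial dilutions or vehicle for 90 min at 37° C after overnight plating.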

Compound	IC50 [1] [µg/mL]	IC50 [7] [µg/mL]	other results
CC[C@H](C)[C@H](NC(=O)CN)C(=O)N[C@@H](Cc1ccccc1)C(=O)N[C@@H](CO)C(=O)N[C@@H](CCCCN)C(=O)N[C@@H](CC(C)C)C(=O)N[C@@H](C)C(=O)NCC(=O)N[C@@H](CCCCN)C(=O)N[C@@H](CCCCN)C(=O)N[C@H](C(=O)N[C@H]1CSCc2ccc(nc2)-c2ccc(cn2)CSC[C@@H](C(=O)N[C@@H](CCCCN)C(=O)NCC(N)=O)NC(=O)CNC(=O)[C@H](CO)NC(=O)[C@H]([C@@H](C)CC)NC(=O)[C@H](CC(C)C)NC(=O)[C@H](CC(C)C)NC(=O)[C@H](CC(N)=O)NC1=O)[C@@H](C)CC [compound 80] (H-GIFSKLAGKKICNLLISGCKG-NH2; linker 12-19 via 2,2'Bipyridine(5,5'-diCH2); N-terminus assumed)			IC50 ([1]; 48 hours of incubation, CellTiter-Glo, read-out: Inhibitory Concentration at 50% Cytotoxicity (IC50) Human Liver Cells (HepG2)): 49 µg/mL (≈ 21 µM); Minimum Inhibitory Concentration (MIC) P. aeruginosa [2]: >64 µg/mL; Minimum Inhibitory Concentration (MIC) S. aureus [3]: >64 µg/mL; Minimum Inhibitory Concentration (MIC) A. baumannii [4]: 32 µg/mL; Minimum Inhibitory Concentration (MIC) K. pneumoniae [5]: >64 µg/mL; Minimum Inhibitory Concentration (MIC) E. coli [6]: 32 µg/mL
CC[C@H](C)[C@H](NC(=O)CN)C(=O)N[C@@H](Cc1ccccc1)C(=O)N[C@@H](CO)C(=O)N[C@@H](CCCCN)C(=O)N[C@H]1CSCc2ccc(cc2)CSC[C@@H](C(=O)N[C@H](C(=O)N[C@@H](CCCCN)C(=O)N[C@@H](CC(N)=O)C(=O)N[C@@H](CC(C)C)C(=O)N[C@@H](CC(C)C)C(=O)N[C@H](C(=O)N[C@@H](CO)C(=O)NCC(=O)N[C@@H](CC(C)C)C(=O)N[C@@H](CCCCN)C(=O)NCC(N)=O)[C@@H](C)CC)[C@@H](C)CC)NC(=O)[C@H](CCCCN)NC(=O)CNC(=O)[C@H](C)NC1=O [compound 8] (H-GIFSKCAGKCIKNLLISGLKG-NH2; linker 6-10 via pXylylene; N-terminus assumed)	15 (≈ 6.66 µM)	119 (≈ 52.8 µM)	
CC[C@H](C)[C@H](NC(=O)CN)C(=O)N[C@@H](Cc1ccccc1)C(=O)N[C@@H](CO)C(=O)N[C@@H](CCCCN)C(=O)N[C@@H](CC(C)C)C(=O)N[C@@H](C)C(=O)NCC(=O)N[C@@H](CCCCN)C(=O)N[C@@H](CCCCN)C(=O)N[C@H](C(=O)N[C@@H](CCCCN)C(=O)N[C@H]1CSCc2ccc(cc2)CSC[C@@H](C(=O)NCC(=O)N[C@@H](CC(C)C)C(=O)N[C@@H](CCCCN)C(=O)NCC(N)=O)NC(=O)[C@H]([C@@H](C)CC)NC(=O)[C@H](CC(C)C)NC(=O)[C@H](CC(C)C)NC1=O)[C@@H](C)CC [compound 24] (H-GIFSKLAGKKIKCLLICGLKG-NH2; linker 13-17 via pXylylene; N-terminus assumed)	103 (≈ 44.9 µM)	54 (≈ 23.6 µM)	
CC[C@H](C)[C@H](NC(=O)CN)C(=O)N[C@H]1CSCc2ccc(cc2)CSC[C@@H](C(=O)NCC(=O)N[C@@H](CCCCN)C(=O)N[C@@H](CCCCN)C(=O)N[C@H](C(=O)N[C@@H](CCCCN)C(=O)N[C@@H](CC(N)=O)C(=O)N[C@@H](CC(C)C)C(=O)N[C@@H](CC(C)C)C(=O)N[C@H](C(=O)N[C@@H](CO)C(=O)NCC(=O)N[C@@H](CC(C)C)C(=O)N[C@@H](CCCCN)C(=O)NCC(N)=O)[C@@H](C)CC)[C@@H](C)CC)NC(=O)[C@H](CC(C)C)NC(=O)[C@H](CCCCN)NC(=O)[C@H](CO)NC1=O [compound 40] (H-GICSKLCGKKIKNLLISGLKG-NH2; linker 3-7 via pXylylene; N-terminus assumed)	124 (≈ 54.5 µM)	117 (≈ 51.4 µM)	
CC[C@H](C)[C@H](NC(=O)CN)C(=O)N[C@@H](Cc1ccccc1)C(=O)N[C@@H](CO)C(=O)N[C@@H](CCCCN)C(=O)N[C@@H](CC(C)C)C(=O)N[C@@H](C)C(=O)NCC(=O)N[C@@H](CCCCN)C(=O)N[C@@H](CCCCN)C(=O)N[C@H](C(=O)N[C@@H](CCCCN)C(=O)N[C@@H](CC(N)=O)C(=O)N[C@H]1CSCc2cccc(c2)CSC[C@@H](C(=O)N[C@@H](CC(C)C)C(=O)N[C@@H](CCCCN)C(=O)NCC(N)=O)NC(=O)[C@H](CO)NC(=O)[C@H]([C@@H](C)CC)NC(=O)[C@H](CC(C)C)NC1=O)[C@@H](C)CC [compound 26] (H-GIFSKLAGKKIKNCLISCLKG-NH2; linker 14-18 via mXylylene; N-terminus assumed)	44 (≈ 18.9 µM)	64 (≈ 27.6 µM)	
CC[C@H](C)[C@H](NC(=O)CN)C(=O)N[C@@H](Cc1ccccc1)C(=O)N[C@@H](CO)C(=O)N[C@@H](CCCCN)C(=O)N[C@@H](CC(C)C)C(=O)N[C@H]1CSCc2cccc(c2)CSC[C@@H](C(=O)N[C@@H](CCCCN)C(=O)N[C@@H](CC(N)=O)C(=O)N[C@@H](CC(C)C)C(=O)N[C@@H](CC(C)C)C(=O)N[C@H](C(=O)N[C@@H](CO)C(=O)NCC(=O)N[C@@H](CC(C)C)C(=O)N[C@@H](CCCCN)C(=O)NCC(=O)N[C@@H](C)C(=O)N[C@@H](CCCCN)C(=O)O)[C@@H](C)CC)NC(=O)[C@H](CCCCN)NC(=O)[C@H](CCCCN)NC(=O)CNC1=O [compound 96] (H-GIFSKLCGKKCKNLLISGLKGAK-OH; linker 7-11 via mXylylene; N-terminus assumed)	193 (≈ 76.9 µM)	153 (≈ 61 µM)	
CC[C@H](C)[C@H](NC(=O)[C@H](CC(C)C)NC(=O)[C@H](CC(C)C)NC(=O)[C@H](CC(N)=O)NC(=O)[C@H](CCCCN)NC(=O)[C@@H](NC(=O)[C@H](CCCCN)NC(=O)[C@H](CCCCN)NC(=O)CNC(=O)[C@H](C)NC(=O)[C@H](CC(C)C)NC(=O)[C@@H]1CSCc2ccc(cc2)CSC[C@H](N)C(=O)N[C@@H]([C@@H](C)CC)C(=O)N[C@@H](Cc2ccccc2)C(=O)N[C@@H](CO)C(=O)N1)[C@@H](C)CC)C(=O)N[C@@H](CO)C(=O)NCC(=O)N[C@@H](CC(C)C)C(=O)N[C@@H](CCCCN)C(=O)NCC(N)=O [compound 37] (H-CIFSCLAGKKIKNLLISGLKG-NH2; linker 1-5 via pXylylene; N-terminus assumed)	33 (≈ 14.3 µM)	140 (≈ 60.7 µM)	
CC[C@H](C)[C@H](NC(=O)CN)C(=O)N[C@@H](Cc1ccccc1)C(=O)N[C@@H](CO)C(=O)N[C@@H](CCCCN)C(=O)N[C@@H](CC(C)C)C(=O)N[C@H]1CSCc2cccc(c2)CSC[C@@H](C(=O)N[C@@H](CCCCN)C(=O)N[C@@H](CC(N)=O)C(=O)N[C@@H](CC(C)C)C(=O)N[C@@H](CC(C)C)C(=O)N[C@H](C(=O)N[C@@H](CO)C(=O)NCC(=O)N[C@@H](CC(C)C)C(=O)N[C@@H](CCCCN)C(=O)NCC(=O)NCC(=O)NCC(=O)N[C@@H](CCCCN)C(=O)O)[C@@H](C)CC)NC(=O)[C@H](CCCCN)NC(=O)[C@H](CCCCN)NC(=O)CNC1=O [compound 94] (H-GIFSKLCGKKCKNLLISGLKGGGK-OH; linker 7-11 via mXylylene; N-terminus assumed)	> 200	168 (≈ 65.8 µM)	
CC[C@H](C)[C@H](NC(=O)CN)C(=O)N[C@@H](Cc1ccccc1)C(=O)N[C@@H](CO)C(=O)N[C@@H](CCCCN)C(=O)N[C@H]1CSCc2cccc(c2)CSC[C@@H](C(=O)N[C@H](C(=O)N[C@@H](CCCCN)C(=O)N[C@@H](CC(N)=O)C(=O)N[C@@H](CC(C)C)C(=O)N[C@@H](CC(C)C)C(=O)N[C@H](C(=O)N[C@@H](CO)C(=O)NCC(=O)N[C@@H](CC(C)C)C(=O)N[C@@H](CCCCN)C(=O)NCC(N)=O)[C@@H](C)CC)[C@@H](C)CC)NC(=O)[C@H](CCCCN)NC(=O)CNC(=O)[C@H](C)NC1=O [compound 41] (H-GIFSKCAGKCIKNLLISGLKG-NH2; linker 6-10 via mXylylene; N-terminus assumed)	21 (≈ 9.33 µM)	58 (≈ 25.8 µM)	
CC[C@H](C)[C@H](NC(=O)CN)C(=O)N[C@@H](Cc1ccccc1)C(=O)N[C@@H](CO)C(=O)N[C@@H](CCCCN)C(=O)N[C@@H](CC(C)C)C(=O)N[C@H]1CSCc2cccc(c2)CSC[C@@H](C(=O)N[C@@H](CCCCN)C(=O)N[C@@H](CC(N)=O)C(=O)N[C@@H](CC(C)C)C(=O)N[C@@H](CC(C)C)C(=O)N[C@H](C(=O)N[C@@H](CO)C(=O)NCC(=O)N[C@@H](CC(C)C)C(=O)N[C@@H](CCCCN)C(=O)NCC(=O)O)[C@@H](C)CC)NC(=O)[C@H](CCCCN)NC(=O)[C@H](CCCCN)NC(=O)[C@H](C)NC1=O [compound 97] (H-GIFSKLCAKKCKNLLISGLKG-OH; linker 7-11 via mXylylene; N-terminus assumed)	> 200	> 200	
CC[C@H](C)[C@H](NC(=O)CN)C(=O)N[C@@H](Cc1ccccc1)C(=O)N[C@@H](CO)C(=O)N[C@@H](CCCCN)C(=O)N[C@@H](CC(C)C)C(=O)N[C@H]1CSCc2cccc(c2)CSC[C@@H](C(=O)N[C@@H](CCCCN)C(=O)N[C@@H](CC(N)=O)C(=O)N[C@@H](CC(C)C)C(=O)N[C@@H](CC(C)C)C(=O)N[C@H](C(=O)N[C@@H](CO)C(=O)N[C@@H](C)C(=O)N[C@@H](CC(C)C)C(=O)N[C@@H](CCCCN)C(=O)NCC(=O)O)[C@@H](C)CC)NC(=O)[C@H](CCCCN)NC(=O)[C@H](CCCCN)NC(=O)[C@H](C)NC1=O [compound 99] (H-GIFSKLCAKKCKNLLISALKG-OH; linker 7-11 via mXylylene; N-terminus assumed)	59 (≈ 25.2 µM)	45 (≈ 19.2 µM)	
